# Laboratory results: patent US20060004019A1, “Steroid sparing agents and methods of using same” (priority 2004, published 2006)
# Columns and labels:
# [1] = system: rat cardiac allografts; assay: Rat cardiac allograft study, Allograft Study 2 (Table 20); conditions: for percent of surviving grafts within a group / number of surviving grafts within each group: s.c., GG5/3 3 mg/kg, compounds 30 mg/kg;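 on all read-outs here: lewis x Brown Norway F1 hearts grafted abdominally into male Lewis rats, palpated daily, rejection meaning complete loss of heartbeat, day 0 being surgery day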
# Method: Hearts from Lewis X Brown Norway F1 hybrids were transplanted to the abdominal great vessels of Lewis recipients using standard microvascular techniques. Both rat strains were male inbred rats, weighing 200-300 g. Food and water was available at all times except during surgical and dosing procedures. The day of transplantation was noted as day 0. […] Allograft survival in the rats was evaluated by daily palpation of the transplanted heart through the recipient's flank. Rejection was taken as the day of complete cessation of the graft's heart beat. Upon determination of rejection, the abdomen of the recipient was incised and retracted to confirm cessation of the heart beat in the transplanted heart. If cessation of the heart beat was not confirmed the abdomen was surgically closed, and the grafted heart was evaluated daily.
# Cardiac allografts were established. Dosing of compounds began on day 0, prior to transplantation and continued through day +10. […] The vehicle control, 10% ethanol/corn oil, was administered s.c., every 12 hours, day 0 through day +10. The antibody, GG5/3 in 0.9% saline, was administered at 3 mg/kg, s.c., on day 0, +3, +7 and +10. All GG5/3 animals received twice daily s.c. injections of 0.9% saline, every 12 hours, throughout day 0 through day +10. The vehicle control, 0.9% saline, was administered daily, s.c., day 0 through day +10. All dosing solutions were formulated daily at a constant dose volume of 5 ml/kg. The site of injection was rotated at each injection through four possible sites: right and left fore flank, right and left rear flank. A total of 28 allografts, amongst 5 groups, were evaluated in the study. Group 1, consisted of 6 animals treated with the monoclonal antibody, GG5/3. […] Allograft survival was evaluated by daily palpation of the transplanted heart through the recipient's flank. Rejection was taken as the day of complete cessation of graft's heart beat. Upon determination of rejection, the abdomen of the recipient was incised to confirm cessation of the heart beat in the transplanted heart. If cessation of the graft's heart beat was not confirmed the abdomen was surgically closed, and the graft was evaluated daily.
# [2] = system: rat cardiac allografts; assay: Rat cardiac allograft study, Allograft Study 4 (Table 22); conditions: s.c., GG5/3 3 mg/kg, compounds 30 mg/kg;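 further: heterotopic abdominal heart transplants from Lewis × Brown Norway F1 donors into male Lewis rats, graft beating checked daily by flank palpation, rejection defined as complete stop of heartbeat, transplant day 0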
# Method: Hearts from Lewis X Brown Norway F1 hybrids were transplanted to the abdominal great vessels of Lewis recipients using standard microvascular techniques. Both rat strains were male inbred rats, weighing 200-300 g. Food and water was available at all times except during surgical and dosing procedures. The day of transplantation was noted as day 0. Twelve hours following the last dose approximately 1 ml of blood was collected into lithium/heparin anti-coagulant tubes. If any graft was rejected prior to the last day of dosing, blood samples were taken 12 hours after dosing on the day that graft rejection was noted. All blood samples were centrifuged at 3000 rpm for 10 minutes and the plasma was harvested, frozen on dry ice and stored frozen at −20 C prior to analysis. Allograft survival in the rats was evaluated by daily palpation of the transplanted heart through the recipient's flank. Rejection was taken as the day of complete cessation of the graft's heart beat. Upon determination of rejection, the abdomen of the recipient was incised and retracted to confirm cessation of the heart beat in the transplanted heart. If cessation of the heart beat was not confirmed the abdomen was surgically closed, and the grafted heart was evaluated daily.
# Cardiac allografts were established. Dosing of compounds began on day −2, 2 days prior to transplantation and continued through day +10. […] The vehicle control, 0.9% saline, pH adjusted to a value of 5, to match the dosing solution containing the N-[N-(3-pyridinesulfonyl)-L-3,3-dimethyl-4-thiaprolyl]-0-[1-methylpiperazin-4-ylcarbonyl]-L-tyrosine isopropyl ester, was administered via the same route, i.e. every 12 hours, day −2 through day +10. The antibody, GG5/3 in 0.9% saline, was administered at 3 mg/kg, s.c., on day 0, +3, +7 and +10. All GG5/3 animals received twice daily s.c. injections of 0.9% saline, every 12 hours, from day −2 through day +10. The vehicle control, 0.9% saline, was administered daily, s.c., day 0 through day +10. All dosing solutions were formulated daily at a constant dose volume of 5 ml/kg. The site of injection was rotated at each injection through four possible sites: right and left fore flank, right and left rear flank. A total of 21 allografts, amongst 5 groups, were evaluated in the study. […] Two animals within the 0.9% saline group received saline adjusted to a pH a value of 5. (The pH value of the N-[N-(3-pyridinesulfonyl)-L-3,3-dimethyl-4-thiaprolyl]-0-[1-methylpiperazin-4-ylcarbonyl]-L-tyrosine isopropyl ester dosing solution.) The remaining two animals received saline of pH 7. Group 2 consisted of 6 animals treated with the monoclonal antibody, GG5/3. […] Twelve hours following the last dose approximately 1 ml of blood was collected into lithium/heparin anti-coagulant tubes. If any graft was rejected prior to the last day of dosing, blood samples were taken 12 hours after dosing on the day that graft rejection was noted. All samples were centrifuged at 3000 rpm for 10 minutes and the plasma was harvested, frozen on dry ice and stored frozen at −20 C prior to dispatch for analysis. Allograft survival in the rats was evaluated by daily palpation of the transplanted heart through the recipient's flank. Rejection was taken as the day of complete cessation of graft's heart beat. Upon determination of rejection, the abdomen of the recipient was incised to confirm cessation of the heart beat in the transplanted heart. If cessation of the heart beat was not confirmed the abdomen was surgically closed, and the graft was evaluated daily.
compound,measurement,setting,value
CC(C)OC(=O)[C@H](Cc1ccc(OC(=O)N(C)C)cc1)NC(=O)[C@H]1N(S(=O)(=O)c2cnn(C)c2)CSC1(C)C,percent of surviving grafts within a group,[1]; Day 0,100%
same,percent of surviving grafts within a group,[1]; Day 1,100%
same,percent of surviving grafts within a group,[1]; Day 2,100%
same,percent of surviving grafts within a group,[1]; Day 3,100%
same,percent of surviving grafts within a group,[1]; Day 4,100%
same,percent of surviving grafts within a group,[1]; Day 5,100%
same,percent of surviving grafts within a group,[1]; Day 6,100%
same,percent of surviving grafts within a group,[1]; Day 7,100%
same,percent of surviving grafts within a group,[1]; Day 8,100%
same,percent of surviving grafts within a group,[1]; Day 9,100%
same,percent of surviving grafts within a group,[1]; Day 10,83%
same,percent of surviving grafts within a group,[1]; Day 11,50%
same,percent of surviving grafts within a group,[1]; Day 12,50%
same,percent of surviving grafts within a group,[1]; Day 13,33%
same,percent of surviving grafts within a group,[1]; Day 14,16%
same,percent of surviving grafts within a group,[1]; Day 15,16%
same,percent of surviving grafts within a group,[1]; Day 16,0%
CC(C)OC(=O)[C@H](Cc1ccc(OC(=O)N2CCN(C)CC2)cc1)NC(=O)[C@H]1N(S(=O)(=O)c2cccnc2)CSC1(C)C,percent of surviving grafts within a group,[2]; day 0,100%
same,percent of surviving grafts within a group,[2]; day 1,100%
same,percent of surviving grafts within a group,[2]; day 2,100%
same,percent of surviving grafts within a group,[2]; day 3,100%
same,percent of surviving grafts within a group,[2]; day 4,100%
same,percent of surviving grafts within a group,[2]; day 5,100%
same,percent of surviving grafts within a group,[2]; day 6,100%
same,percent of surviving grafts within a group,[2]; day 7,100%
same,percent of surviving grafts within a group,[2]; day 8,100%
same,percent of surviving grafts within a group,[2]; day 9,83%
same,percent of surviving grafts within a group,[2]; day 10,66%
same,percent of surviving grafts within a group,[2]; day 11,66%
same,percent of surviving grafts within a group,[2]; day 12,66%
same,percent of surviving grafts within a group,[2]; day 13,66%
same,percent of surviving grafts within a group,[2]; day 14,66%
same,percent of surviving grafts within a group,[2]; day 15,66%
same,percent of surviving grafts within a group,[2]; day 16,50%
same,percent of surviving grafts within a group,[2]; day 17,50%
same,percent of surviving grafts within a group,[2]; day 18,50%
same,percent of surviving grafts within a group,[2]; day 19,50%
same,number of surviving grafts,[2]; day 20,2
same,percent of surviving grafts within a group,[2]; day 20,33%
same,number of surviving grafts,[2]; day 21,2
same,percent of surviving grafts within a group,[2]; day 21,33%
same,number of surviving grafts,[2]; day 22,2
same,percent of surviving grafts within a group,[2]; day 22,33%
same,number of surviving grafts,[2]; day 23,2
same,percent of surviving grafts within a group,[2]; day 23,33%
same,number of surviving grafts,[2]; day 24,2
same,percent of surviving grafts within a group,[2]; day 24,33%
same,number of surviving grafts,[2]; day 25,2
same,percent of surviving grafts within a group,[2]; day 25,33%
same,number of surviving grafts,[2]; day 26,2
same,percent of surviving grafts within a group,[2]; day 26,33%
same,number of surviving grafts,[2]; day 27,2
same,percent of surviving grafts within a group,[2]; day 27,33%
same,number of surviving grafts,[2]; day 28,2
same,percent of surviving grafts within a group,[2]; day 28,33%
same,number of surviving grafts,[2]; day 29,2
same,percent of surviving grafts within a group,[2]; day 29,33%
same,number of surviving grafts,[2]; day 30,2
same,percent of surviving grafts within a group,[2]; day 30,33%
same,number of surviving grafts,[2]; day 31,1
same,percent of surviving grafts within a group,[2]; day 31,16%
same,number of surviving grafts,[2]; day 32,1
same,percent of surviving grafts within a group,[2]; day 32,16%
same,number of surviving grafts,[2]; day 33,1
same,percent of surviving grafts within a group,[2]; day 33,16%
same,number of surviving grafts,[2]; day 34,1
same,percent of surviving grafts within a group,[2]; day 34,16%
same,number of surviving grafts,[2]; day 35,1
same,percent of surviving grafts within a group,[2]; day 35,16%
same,number of surviving grafts,[2]; day 36,1
same,percent of surviving grafts within a group,[2]; day 36,16%
same,number of surviving grafts,[2]; day 37,1
same,percent of surviving grafts within a group,[2]; day 37,16%
same,number of surviving grafts,[2]; day 38,1
same,percent of surviving grafts within a group,[2]; day 38,16%
same,number of surviving grafts,[2]; day 39,1
same,percent of surviving grafts within a group,[2]; day 39,16%
same,number of surviving grafts,[2]; day 40,1
same,percent of surviving grafts within a group,[2]; day 40,16%
same,number of surviving grafts,[2]; day 41,1
same,percent of surviving grafts within a group,[2]; day 41,16%
same,number of surviving grafts,[2]; day 42,0
same,percent of surviving grafts within a group,[2]; day 42,0%
CC(C)OC(=O)[C@H](Cc1ccc(OC(=O)N(C)C)cc1)NC(=O)[C@H]1N(S(=O)(=O)c2cccnc2)CSC1(C)C [listing 1 of 2 here],number of surviving grafts within each group,[1]; Day 0,6
same,number of surviving grafts within each group,[1]; Day 1,6
same,number of surviving grafts within each group,[1]; Day 2,6
same,number of surviving grafts within each group,[1]; Day 3,6
same,number of surviving grafts within each group,[1]; Day 4,6
same,number of surviving grafts within each group,[1]; Day 5,6
same,number of surviving grafts within each group,[1]; Day 6,6
same,number of surviving grafts within each group,[1]; Day 7,6
same,number of surviving grafts within each group,[1]; Day 8,4
same,number of surviving grafts within each group,[1]; Day 9,2
same,number of surviving grafts within each group,[1]; Day 10,2
same,number of surviving grafts within each group,[1]; Day 11,1
same,number of surviving grafts within each group,[1]; Day 12,0
same,number of surviving grafts within each group,[1]; Day 13,0
same,number of surviving grafts within each group,[1]; Day 14,0
same,number of surviving grafts within each group,[1]; Day 15,0
same,number of surviving grafts within each group,[1]; Day 16,0
CC(C)OC(=O)[C@H](Cc1ccc(OC(=O)N(C)C)cc1)NC(=O)[C@H]1N(S(=O)(=O)c2cccnc2)CSC1(C)C [listing 2 of 2 here],percent of surviving grafts within a group,[1]; Day 0,100%
same,percent of surviving grafts within a group,[1]; Day 1,100%
same,percent of surviving grafts within a group,[1]; Day 2,100%
same,percent of surviving grafts within a group,[1]; Day 3,100%
same,percent of surviving grafts within a group,[1]; Day 4,100%
same,percent of surviving grafts within a group,[1]; Day 5,100%
same,percent of surviving grafts within a group,[1]; Day 6,100%
same,percent of surviving grafts within a group,[1]; Day 7,100%
same,percent of surviving grafts within a group,[1]; Day 8,66%
same,percent of surviving grafts within a group,[1]; Day 9,50%
same,percent of surviving grafts within a group,[1]; Day 10,50%
same,percent of surviving grafts within a group,[1]; Day 11,16%
same,percent of surviving grafts within a group,[1]; Day 12,0%
same,percent of surviving grafts within a group,[1]; Day 13,0%
same,percent of surviving grafts within a group,[1]; Day 14,0%
same,percent of surviving grafts within a group,[1]; Day 15,0%
same,percent of surviving grafts within a group,[1]; Day 16,0%
CC(C)OC(=O)[C@H](Cc1ccc(OC(=O)N(C)C)cc1)NC(=O)[C@H]1N(S(=O)(=O)c2cccnc2)CSC1(C)C [Example 173],day by which all grafts rejected,"[1]; 30 mg/kg s.c. every 12 h, day 0 through day +10",≤ 12 days
same,graft survival (in words),"[1]; compounds 30 mg/kg s.c. every 12 h, GG5/3 3 mg/kg s.c. day 0, +3, +7, +10",prolonged graft survival for a short period
